Tests used:
[1] = biological target: CDK2/Cyclin E1 (Homo sapiens, UniProt P24941); assay: CDK2/Cyclin E1 TR-FRET biochemical assay, 0.060 mM ATP; conditions: 0.15 μM Rb (Ser780)-biotin substrate, 120 min reaction, Table 1
Method: (§1) Compounds disclosed herein were tested for inhibition of CDK2/Cyclin E1 or CDK1/Cyclin B1 kinase in an assay based on the time-resolved fluorescence-resonance energy transfer (TR-FRET) methodology. The assay was carried out in 384-well low volume black plates in a reaction mixture containing CDK2/Cyclin E1 or CDK1/Cyclin B1, 0.060 mM ATP for CDK2/Cyclin E1 or 0.015 mM ATP for CDK1/Cyclin B1, 0.15 μM Rb (Ser780)-biotin substrate and 0-10 μM compound in buffer containing 50 mM HEPES pH7.0, 0.02% NaN3, 0.01% BSA, 0.1 mM Orthovanadate, 50 mM MgCl2, 1 mM DTT and 0.005% Tween-20. The kinase was incubated with compound for 60 minutes at room temperature and the reaction was initiated by the addition of ATP and Rb (Ser780)-biotin substrate. After reaction at room temperature for 120 minutes, an equal volume of stop/detection solution was added according to the manufacture's instruction (Cisbio Bioassays). The stop/detection solution contained Streptavidin-XL665 and Anti-pRb (Ser780) mAb-Eu Cryptate in Detection buffer (Cisbio Bioassays). Plates were incubated at room temperature for 60 minutes, and the TR-FRET signals (ex337 nm, em665 nm/620 nm) were recorded on a PHERAstar FSX plate reader (BMG Labtech). The inhibition percentage of CDK2/Cyclin E1 or CDK1/Cyclin B1 kinase activity in presence of increasing concentrations of compounds was calculated based on the ratio of fluorescence at 665 nm to that at 620 nm. The IC50 for each compound was derived from fitting the data to the four-parameter logistic equation by Dotmatics.

[2] = biological target: CDK1/Cyclin B1 (Homo sapiens, UniProt P06493); assay: CDK1/Cyclin B1 TR-FRET biochemical assay, 0.015 mM ATP; conditions: 0.15 μM Rb (Ser780)-biotin substrate, 120 min reaction, Table 1
Chain of CDK1/Cyclin B1 (P06493 whole entry): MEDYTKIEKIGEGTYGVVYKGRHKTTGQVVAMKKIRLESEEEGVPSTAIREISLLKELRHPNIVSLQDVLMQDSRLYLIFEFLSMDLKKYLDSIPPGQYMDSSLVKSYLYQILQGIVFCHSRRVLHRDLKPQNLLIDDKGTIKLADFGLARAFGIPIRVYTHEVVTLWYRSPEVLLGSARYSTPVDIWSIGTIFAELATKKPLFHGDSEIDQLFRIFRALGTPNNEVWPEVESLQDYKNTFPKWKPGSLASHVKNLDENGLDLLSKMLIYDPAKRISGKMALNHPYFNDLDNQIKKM
Chain of CDK1/Cyclin B1 (P14635 whole entry partner): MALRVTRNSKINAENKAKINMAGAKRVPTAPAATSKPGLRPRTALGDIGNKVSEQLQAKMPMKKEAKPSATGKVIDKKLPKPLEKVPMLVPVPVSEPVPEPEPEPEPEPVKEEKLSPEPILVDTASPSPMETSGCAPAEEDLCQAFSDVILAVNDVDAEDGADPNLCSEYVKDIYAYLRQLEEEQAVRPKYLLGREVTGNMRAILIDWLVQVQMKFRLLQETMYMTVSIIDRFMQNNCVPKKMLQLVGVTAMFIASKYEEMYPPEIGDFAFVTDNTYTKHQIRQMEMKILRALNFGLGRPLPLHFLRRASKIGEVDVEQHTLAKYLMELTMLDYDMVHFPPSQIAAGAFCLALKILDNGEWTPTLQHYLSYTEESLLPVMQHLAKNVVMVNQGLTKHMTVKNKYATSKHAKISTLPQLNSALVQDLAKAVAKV
Method: as §1

Structure (SMILES) | IC50 [1] | IC50 [2]
Cn1ccc(O[C@@H]2CC[C@H](c3cc(Nc4ccc5c(c4F)CNS5(=O)=O)n[nH]3)C2)n1 (relative stereo) [Example 64, cis-4-fluoro-5-((5-(3-((1-methyl-1H-pyrazol-3-yl)oxy)cyclopentyl)-1H-pyrazol-3-yl)amino)-2,3-dihydrobenzo[d]isothiazole 1,1-dioxide] | 296 nM | 1900 nM
O=S1(=O)NCc2c1ccc(Nc1cc(C3CCC(c4ncc(CO)o4)C3)[nH]n1)c2F (stereo not drawn) [Example 93, 4-fluoro-5-((5-(3-(5-(hydroxymethyl)oxazol-2-yl)cyclopentyl)-1H-pyrazol-3-yl)amino)-2,3-dihydrobenzo[d]isothiazole 1,1-dioxide] | 70 nM | 1760 nM
Cc1n[nH]c(C)c1O[C@@H]1CC[C@H](c2cc(Nc3ccc4c(c3F)CNS4(=O)=O)n[nH]2)C1 (relative stereo) [Example 75, cis-5-((5-(3-((3,5-dimethyl-1H-pyrazol-4-yl)oxy)cyclopentyl)-1H-pyrazol-3-yl)amino)-4-fluoro-2,3-dihydrobenzo[d]isothiazole 1,1-dioxide] | 53 nM | 1070 nM
O=c1c2ccncc2cnn1[C@H]1CC[C@@H](c2cc(Nc3ccc4c(c3F)CNS4(=O)=O)n[nH]2)C1 (relative stereo) [Example 34, cis-2-(3-(3-((4-fluoro-1,1-dioxido-2,3-dihydrobenzo[d]isothiazol-5-yl)amino)-1H-pyrazol-5-yl)cyclopentyl)pyrido[3,4-d]pyridazin-1 (2H)-one] | 63 nM | 1550 nM
O=S1(=O)NCc2c1ccc(Nc1cc([C@H]3CC[C@@H](Oc4nnccc4-c4ccccc4)C3)[nH]n1)c2F (relative stereo) [Example 31, cis-4-fluoro-5-((5-(3-((4-phenylpyridazin-3-yl)oxy)cyclopentyl)-1H-pyrazol-3-yl)amino)-2,3-dihydrobenzo[d]isothiazole 1,1-dioxide] | 8.5 nM | 73 nM
CC(C)n1cnnc1O[C@@H]1CC[C@H](c2cc(Nc3ccc4c(c3F)CNS4(=O)=O)n[nH]2)C1 (relative stereo) [Example 57, cis-4-fluoro-5-((5-(3-((4-isopropyl-4H-1,2,4-triazol-3-yl)oxy)cyclopentyl)-1H-pyrazol-3-yl)amino)-2,3-dihydrobenzo[d]isothiazole 1,1-dioxide] | 341 nM | 8300 nM
CCc1cnc(C2CCC(c3cc(Nc4ccc5c(c4F)CNS5(=O)=O)n[nH]3)C2)o1 (stereo not drawn) [Example 92, 5-((5-(3-(5-ethyloxazol-2-yl)cyclopentyl)-1H-pyrazol-3-yl)amino)-4-fluoro-2,3-dihydrobenzo[d]isothiazole 1,1-dioxide] | 21 nM | 509 nM
CC(C)(C)c1cc(O[C@@H]2CC[C@H](c3cc(Nc4ccc5c(c4F)CNS5(=O)=O)n[nH]3)C2)[nH]n1 (relative stereo) [Example 71, cis-5-((5-(3-((3-(tert-butyl)-1H-pyrazol-5-yl)oxy)cyclopentyl)-1H-pyrazol-3-yl)amino)-4-fluoro-2,3-dihydrobenzo[d]isothiazole 1,1-dioxide] | 391 nM | 7810 nM
CC(C)(C)c1cnc(C2CCC(c3cc(Nc4ccc5c(c4F)CNS5(=O)=O)n[nH]3)C2)o1 (single isomer, unassigned) [Example 91b, cis-5-((5-(3-(5-(tert-butyl)oxazol-2-yl)cyclopentyl)-1H-pyrazol-3-yl)amino)-4-fluoro-2,3-dihydrobenzo[d]isothiazole 1,1-dioxide] | 23 nM | 2570 nM
C=C(C)c1cnn([C@H]2CC[C@@H](c3cc(Nc4ccc5c(c4F)CNS5(=O)=O)n[nH]3)C2)c(=O)c1 (relative stereo) [Example 32, cis-2-(3-(3-((4-fluoro-1,1-dioxido-2,3-dihydrobenzo[d]isothiazol-5-yl)amino)-1H-pyrazol-5-yl)cyclopentyl)-5-(prop-1-en-2-yl)pyridazin-3 (2H)-one] | 48 nM | 3570 nM
CC(C)(C)n1cnnc1O[C@@H]1CC[C@H](c2cc(Nc3ccc4c(c3F)CNS4(=O)=O)n[nH]2)C1 (relative stereo) [Example 59, (cis)-5-((5-(3-((4-(tert-butyl)-4H-1,2,4-triazol-3-yl)oxy)cyclopentyl)-1H-pyrazol-3-yl)amino)-4-fluoro-2,3-dihydrobenzo[d]isothiazole 1,1-dioxide] | 7.6 nM | 556 nM
CC(C)(C)c1cn[nH]c1O[C@@H]1CC[C@H](c2cc(Nc3ccc4c(c3F)CNS4(=O)=O)n[nH]2)C1 (relative stereo) [Example 61, cis-5-((5-(3-((4-(tert-butyl)-1H-pyrazol-5-yl)oxy)cyclopentyl)-1H-pyrazol-3-yl)amino)-4-fluoro-2,3-dihydrobenzo[d]isothiazole 1,1-dioxide] | 1 nM | 56 nM
CCc1ccnnc1O[C@@H]1CC[C@H](c2cc(Nc3ccc4c(c3F)CNS4(=O)=O)n[nH]2)C1 (relative stereo) [Example 25, cis-5-((5-(3-((4-ethylpyridazin-3-yl)oxy)cyclopentyl)-1H-pyrazol-3-yl)amino)-4-fluoro-2,3-dihydrobenzo[d]isothiazole 1,1-dioxide] | 1.4 nM | 11 nM
Cn1nccc1O[C@@H]1CC[C@H](c2cc(Nc3ccc4c(c3F)CNS4(=O)=O)n[nH]2)C1 (relative stereo) [Example 63, cis-4-fluoro-5-((5-(3-((1-methyl-1H-pyrazol-5-yl)oxy)cyclopentyl)-1H-pyrazol-3-yl)amino)-2,3-dihydrobenzo[d]isothiazole 1,1-dioxide] | 90 nM | 3120 nM
CC(C)(C)c1cnc([C@@H]2CC[C@H](c3cc(Nc4ccc5c(c4)CS(=O)(=O)N5)n[nH]3)C2)o1 (relative stereo) [Example 135, cis-5-((5-(3-(5-(tert-butyl)oxazol-2-yl)cyclopentyl)-1H-pyrazol-3-yl)amino)-1,3-dihydrobenzo[c]isothiazole 2,2-dioxide] | 4.6 nM | 11 nM
Cc1cc(O[C@@H]2CC[C@H](c3cc(Nc4ccc5c(c4F)CNS5(=O)=O)n[nH]3)C2)n(-c2ccccc2)n1 (relative stereo) [Example 66, cis-4-fluoro-5-((5-(3-((3-methyl-1-phenyl-1H-pyrazol-5-yl)oxy)cyclopentyl)-1H-pyrazol-3-yl)amino)-2,3-dihydrobenzo[d]isothiazole 1,1-dioxide] | 2530 nM | > 10000 nM
CCc1cnc(C2CCC(c3cc(Nc4ccc5c(c4)CS(=O)(=O)N5)n[nH]3)C2)o1 (stereo not drawn) [Example 133, 5-((5-(3-(5-ethyloxazol-2-yl)cyclopentyl)-1H-pyrazol-3-yl)amino)-1,3-dihydrobenzo[c]isothiazole 2,2-dioxide] | 6.2 nM | 82 nM
CC(C)(C)c1n[nH]cc1OC1CCC(c2cc(Nc3ccc4c(c3F)CNS4(=O)=O)n[nH]2)C1 (single isomer, unassigned) [Example 74b, cis-5-((5-(3-((3-(tert-butyl)-1H-pyrazol-4-yl)oxy)cyclopentyl)-1H-pyrazol-3-yl)amino)-4-fluoro-2,3-dihydrobenzo[d]isothiazole 1,1-dioxide] | 18 nM | 671 nM

— patent US20260200897A1, “4-((5-(3-(4-(PYRIDIN-2-YL)CYCLOPENTYL)-1H-PYRAZOL-3-YL)AMINO)-BENZENESULFONAMIDE DERIVATIVES AND SIMILAR COMPOUNDS AS CDK INHIBITORS FOR THE TREATMENT OF CANCER” (BeOne Medicines I GmbH, priority 2023, published 2026)
